Consider 28 compounds from ChEMBL document CHEMBL3992516, “Synthesis and SAR evaluation of novel thioridazine derivatives active against drug-resistant tuberculosis” (Eur J Med Chem, 2017).

In data set [1] the test system is Mycolicibacterium smegmatis. The data set can be described thus: Antimycobacterial activity against Mycobacterium smegmatis MC2 155 ATCC 700084 by microplate alamar blue assay. It counts as functional. Background: Alamar Blue is a resazurin reagent that responds to reducing activity.
Data set [2] relates to Mycobacterium tuberculosis. As to the kind of experiment: Antimycobacterial activity against Mycobacterium tuberculosis MC2 7000 by microplate alamar blue assay. It counts as functional.
The subject of data set [3] is Mycobacterium tuberculosis. As to the kind of experiment: Antimycobacterial activity against drug-succeptible Mycobacterium tuberculosis CF73 incubated for 7 days measured 24 hrs post incubation by resazurin microtiter assay. It counts as functional.
The subject of data set [4] is Mycolicibacterium smegmatis. The data set can be described thus: Inhibition of efflux pump in Mycobacterium smegmatis assessed as increase in accumulation of ethidium bromide at 0.25 times MIC measured every min for 60 mins by fluorimetric method.
Data set [5] concerns Mycobacterium tuberculosis. As to the kind of experiment: Antimycobacterial activity against Mycobacterium tuberculosis H37Rv ATCC 27294 incubated for 7 days measured 24 hrs post incubation by resazurin microtiter assay. It counts as functional.
In the next data set the test system is MRC5. As to the kind of experiment: Cytotoxicity against human MRC5 cells assessed as decrease in cell viability after 24 hrs by resazurin reduction assay. It counts as cell-based. The conditions noted are these: MRC5, 24 h.
For another data set, the system named is J774. The data set can be described thus: Cytotoxicity against mouse J774 cells assessed as decrease in cell viability after 24 hrs by resazurin reduction assay. It counts as cell-based. The conditions noted are these: J774, 24 h.
The nature of data set [6]: Selectivity index, ratio of IC50 for human MRC5 cells to MIC90 for drug-succeptible Mycobacterium tuberculosis CF73. It counts as toxicity. The conditions noted are these: read-out: Selectivity Index.

Values after ≈ are worked out from the molar mass of the structure shown. Active and inactive are the calls of the source. No cut-off for these calls is given here.

In the case of `CSc1ccc2c(c1)N(CCC1CCCCN1C(C)C)c1ccccc1S2` (stereo unspecified), the MIC in data set [1] and in data set [2] was > 64 µg/mL each time.

Regarding `CSc1ccc2c(c1)N(CCCN1CCN(C)CC1)c1ccccc1S2`, the MIC (usually the lowest concentration found to suppress growth) was determined as 32 µg/mL (≈ 83 µM) in data set [1] and 27 µg/mL (≈ 70 µM) in data set [2]. In addition, the MIC90 (usually the lowest concentration that inhibits either 90% of growth or 90% of the strains tested, depending on the study) in data set [3] was found to be 27 µg/mL (≈ 70 µM); in data set [5] it was 69 µg/mL (≈ 179 µM). Further, the inhibition entry in data set [4] was “Active”.

On to `CSc1ccc2c(c1)N(CCC1CCCCN1)c1ccccc1S2` (stereo unspecified), for which the MIC in data set [1] is 16 µg/mL (≈ 44.9 µM); in data set [2], 8 µg/mL (≈ 22.4 µM). Further, the MIC90 in data set [3] is > 100 µg/mL; in data set [5], 100 µg/mL (≈ 280 µM).

With `CN1CCCCC1CCn1cnc2ccccc21` (stereo unspecified), the MIC in data set [1] and in data set [2] was > 64 µg/mL in each case.

`CSc1ccc2c(c1)N(CCC1CCCCN1Cc1ccccc1)c1ccccc1S2` (stereo unspecified): the MIC in data set [1] worked out at 16 µg/mL (≈ 35.8 µM); in data set [2], 8 µg/mL (≈ 17.9 µM). For the same compound, the MIC90 in data set [3] is 37 µg/mL (≈ 82.8 µM); in data set [5], > 100 µg/mL.

As to `CSc1ccc2c(c1)N(C(=O)CN1CCN(C)CC1)c1ccccc1S2`, the MIC in data set [1] and in data set [2] was > 64 µg/mL in each case.

`CCCN1CCCCC1CCN1c2ccccc2Sc2ccc(SC)cc21` (stereo unspecified): the MIC is > 64 µg/mL in data set [1] and 64 µg/mL (≈ 161 µM) in data set [2]. Also, the MIC90 in data set [5] was determined as 45 µg/mL (≈ 113 µM).

For the compound `Clc1ccc2c(c1)N(CCCN1CCN(c3ccccc3)CC1)c1ccccc1S2`, the MIC in data set [1] and in data set [2] was > 64 µg/mL throughout.

Take `CN1CCCCC1CCN1c2ccccc2Sc2ccc(Cl)cc21` (stereo unspecified): the IC50 (in general, the concentration that inhibits the measured activity by half) in the data set on MRC5 was found to be 13 µg/mL (≈ 36.2 µM); in the data set on J774 it was 8.4 µg/mL (≈ 23.4 µM). Also, the MIC in data set [1] is 16 µg/mL (≈ 44.6 µM); in data set [2] it was 8 µg/mL (≈ 22.3 µM). In addition, the MIC90 in data set [3] was 16 µg/mL (≈ 44.6 µM); in data set [5] it was 19 µg/mL (≈ 52.9 µM). In addition, the selectivity ratio in data set [6] was determined as 0.8.

`CO[C@H]1/C=C/O[C@@]2(C)Oc3c(C)c(O)c4c(O)c(c(/C=N/N5CCN(C)CC5)c(O)c4c3C2=O)NC(=O)/C(C)=C\C=C\[C@H](C)[C@H](O)[C@@H](C)[C@@H](O)[C@@H](C)[C@H](OC(C)=O)[C@@H]1C` [RIFAMPIN]: the figures for the MIC90 in data set [3] and in data set [5] were 8 µg/mL (≈ 9.72 µM) and 0.3 µg/mL (≈ 0.365 µM), respectively. Further, in data set [2], the MIC was determined as 0.25 µg/mL (≈ 0.304 µM).

In the case of `CN1CCN(CCCn2ccc3ccccc32)CC1`, the MIC in data set [1] and in data set [2] was > 64 µg/mL each time.

As to `c1ccc2c(c1)Sc1ccccc1N2CCC1CCCCN1` (stereo unspecified), the MIC in data set [1] and in data set [2] was > 64 µg/mL each time. The MIC90 was 47 µg/mL (≈ 151 µM) in data set [3] and > 64 µg/mL in data set [5].

Turning to `CSc1ccc2c(c1)N(CCCN1CCN(c3ccccc3)CC1)c1ccccc1S2`, the MIC in data set [1] and in data set [2] was > 64 µg/mL throughout.

For the compound `NNC(=O)c1ccncc1` [ISONIAZID], the values for the MIC in data set [1] and in data set [2] were 4 µg/mL (≈ 29.2 µM) and 0.125 µg/mL (≈ 0.911 µM), respectively. Also, the MIC90 in data set [3] and in data set [5] was 0.03 µg/mL (≈ 0.219 µM) throughout.

Regarding `c1ccc2c(c1)c1ccccc1n2CCC1CCCCN1` (stereo unspecified), the MIC in data set [1] and in data set [2] was > 64 µg/mL throughout.

As to `CN1CCN(CCCN2c3ccccc3Sc3ccccc32)CC1` [PERAZINE], the MIC was 64 µg/mL (≈ 189 µM) in data set [1] and 27 µg/mL (≈ 79.5 µM) in data set [2]. Besides, the MIC90 in data set [3] is > 100 µg/mL; in data set [5], 100 µg/mL (≈ 295 µM). The inhibition result in data set [4] is “Active”.

On to `CSc1ccc2c(c1)N(CCCN1CCN(C3C4CC5CC(C4)CC3C5)CC1)c1ccccc1S2` (stereo unspecified), for which the MIC is 4 µg/mL (≈ 7.91 µM) in data set [1] and > 64 µg/mL in data set [2]. The MIC90 in data set [3] is 98 µg/mL (≈ 194 µM); in data set [5], 43 µg/mL (≈ 85 µM).

For the compound `CN1CCCCC1CCN1c2ccccc2Sc2ccccc21` (stereo unspecified), the MIC in data set [1] came out at 32 µg/mL (≈ 98.6 µM); in data set [2], 16 µg/mL (≈ 49.3 µM). Moreover, the figures for the MIC90 in data set [3] and in data set [5] were 47 µg/mL (≈ 145 µM) and > 64 µg/mL, respectively.

On to `c1ccc(N2CCN(CCCN3c4ccccc4Sc4ccccc43)CC2)cc1`, for which the MIC in data set [1] and in data set [2] was > 64 µg/mL in each case.

As to `Clc1ccc2c(c1)N(CCC1CCCCN1)c1ccccc1S2` (stereo unspecified), the IC50 in the data set with MRC5 worked out at 10 µg/mL (≈ 29 µM); in the data set with J774, 10.7 µg/mL (≈ 31 µM). Besides, the MIC in data set [1] is 16 µg/mL (≈ 46.4 µM); in data set [2] it was 4 µg/mL (≈ 11.6 µM). In addition, the MIC90 was determined as 11 µg/mL (≈ 31.9 µM) in data set [3] and 26 µg/mL (≈ 75.4 µM) in data set [5]. The inhibition entry in data set [4] is “inactive”. In addition, the selectivity ratio in data set [6] was 0.9.

For the compound `CN1CCCCC1CCn1c2ccccc2c2ccccc21` (stereo unspecified), the values for the MIC in data set [1] and in data set [2] were > 64 µg/mL and 64 µg/mL (≈ 219 µM), respectively. Besides, the MIC90 in data set [3] came to 39 µg/mL (≈ 133 µM); in data set [5], 60 µg/mL (≈ 205 µM).

For the compound `CSc1ccc2c(c1)N(CCCN1CCN(C34CC5CC(CC(C5)C3)C4)CC1)c1ccccc1S2`, the MIC in data set [1] and in data set [2] was 64 µg/mL (≈ 127 µM) throughout.

Take `c1ccc2c(c1)ccn2CCC1CCCCN1` (stereo unspecified): the values for the IC50 in the data set with MRC5 and in the data set with J774 were 15 µg/mL (≈ 65.7 µM) and 7.3 µg/mL (≈ 32 µM), respectively. In addition, 1.6 µg/mL (≈ 7.01 µM) was the least that counted as inhibitory in data set [1] (MIC). Besides, the results for the MIC90 in data set [3] and in data set [5] were 1 µg/mL (≈ 4.38 µM) and 2.9 µg/mL (≈ 12.7 µM), respectively. The inhibition entry in data set [4] was “inactive”. The selectivity ratio in data set [6] was determined as 15.

Regarding `CSc1ccc2c(c1)N(C(=O)CN1CCCCC1)c1ccccc1S2`, the MIC90 in data set [3] and in data set [5] was > 100 µg/mL each time.

With `CSc1ccc2c(c1)N(CCC1CCCCN1C)c1ccccc1S2` (stereo unspecified) [THIORIDAZINE], the IC50 with MRC5 came out at 8.2 µg/mL (≈ 22.1 µM); with J774 it was 4.1 µg/mL (≈ 11.1 µM). The MIC is 16 µg/mL (≈ 43.2 µM) in data set [1] and 8 µg/mL (≈ 21.6 µM) in data set [2]. Moreover, the results for the MIC90 in data set [3] and in data set [5] were 8 µg/mL (≈ 21.6 µM) and 10 µg/mL (≈ 27 µM), respectively. Moreover, the selectivity ratio in data set [6] worked out at 1.

On to `CSc1ccc2c(c1)N(CCCN1CCSCC1)c1ccccc1S2`, for which the MIC in data set [1] and in data set [2] was > 64 µg/mL throughout.

In the case of `Clc1ccc2c(c1)N(CCCN1CCSCC1)c1ccccc1S2`, the MIC in data set [1] and in data set [2] was > 64 µg/mL in each case.

Turning to `c1ccc2c(c1)ncn2CCC1CCCCN1` (stereo unspecified), the MIC in data set [1] and in data set [2] was > 64 µg/mL throughout. In addition, the MIC90 in data set [3] was > 100 µg/mL; in data set [5], 100 µg/mL (≈ 436 µM).
